In patent publication US9322066B2, “Predictors for cancer treatment” (priority 2011, dated 2016):

Tested on: relapsed or refractory, rituximab-naive or -sensitive follicular B-cell NHL
Test: Progression-free survival (PFS), Vc-R vs rituximab study, by biomarker
Type: in vivo, human
From the text: Non-Hodgkin lymphoma (NHL) encompasses several unique malignant lymphoid disease entities that vary in clinical behavior, morphologic appearance, immunologic, and molecular phenotype. […] A randomized, open-label, active-controlled, multicenter, multinational, prospective study to compare the efficacy and safety of the combination of bortezomib and rituximab (Vc-R) to single-agent rituximab in subjects who have relapsed or refractory, rituximab-naive or -sensitive follicular B-cell NHL was performed.
Subjects were centrally randomized to Treatment Groups A (Vc-R) or B (rituximab) in a 1:1 ratio taking into account the following stratification factors: • Follicular Lymphoma International Prognostic Index (FLIPI) score (low [0 or 1 factor], intermediate [2 factors], high [≧3 factors]); • Prior rituximab therapy (yes, no); • Time since last dose of anti-lymphoma therapy (≦1 year, >1 year); • Region (United States/Canada, European Union, Rest of World).
The following clinical endpoints were included in the analysis within each treatment group and an overall comparison was made with the biomarker-related endpoints: Progression-free survival, defined as the interval between the date of randomization and the date of progressive disease (PD) or death, whichever is first reported in the ITT population; overall survival; overall response rate (complete response [CR]+CR unconfirmed [CRu]+partial response [PR]); overall CR rate (CR+CRu); duration of response; time to next anti-lymphoma therapy; and treatment free interval.
For single-marker association analyses and pair-wise comparisons, a log rank test and Cox proportional hazard model was utilized for assessments of PFS, TTP, and OS between the treatment groups. Kaplan-Meier curves were utilized to estimate the distribution differences between groups in the time-to-event analyses. Comparison of the response rates between the treatment groups was conducted using the Fishers exact test. Single-marker association analyses were stratified by the covariates.
For pair-wise comparison analysis, biomarker pairs were formed by combinations of two markers. A log rank test was utilized for assessments of PFS, TTP, and OS between the treatment groups in the subpopulation defined by biomarker pairs. Kaplan-Meier curves were utilized to estimate the distribution differences between groups in the time-to-event analyses. Comparison of the response rates between the treatment groups was conducted using the Fishers exact test. Methods of Analysis for the multiple biomarker comparison models can be found in section 4.6.
The stratified log rank test and Cox proportional hazard model was utilized for assessments of PFS between the treatment groups. The Kaplan-Meier method was to be used to estimate the distribution of overall PFS for each treatment group in the biomarker population, and overall; stratified by expression level, SNP, or mutation (or covariate groups as noted above). The hazard ratio and 95% confidence interval was based on a stratified Cox's proportion hazard model with treatment as the explanatory variable. Analyses were done for the population overall and by treatment group, and each of these analyses were also stratified by the following factors if sufficient sample size existed: […]

rituximab
Median PFS (Vc − R vs R) (20S % NUCLEAR STAINING 30-90 + 20S INTENSITY CYTOPLASMIC SIGNAL >=3+, Excluded): 347 days
Median PFS (Vc − R vs R) (20S % NUCLEAR STAINING 30-90 + 20S INTENSITY CYTOPLASMIC SIGNAL >=3+, Selected): 280 days
Median PFS (Vc − R vs R) (20S % NUCLEAR STAINING 30-90 + 20S INTENSITY CYTOPLASMIC SIGNAL >=3+, Total): 345 days
Median PFS (Vc-R vs R) (AGEGRP <=65 + CD68 POSITIVE FOLLICULAR 0-50, Excluded): 427 days
Median PFS (Vc-R vs R) (AGEGRP <=65 + CD68 POSITIVE FOLLICULAR 0-50, Selected): 275 days
Median PFS (Vc-R vs R) (AGEGRP <=65 + CD68 POSITIVE FOLLICULAR 0-50, Total): 346 days
Median PFS (Vc − R vs R) (AGEGRP <=65 + CD68 POSITIVE PERIFOLLICULAR 0-50, Excluded): 351 days
Median PFS (Vc − R vs R) (AGEGRP <=65 + CD68 POSITIVE PERIFOLLICULAR 0-50, Selected): 281 days
Median PFS (Vc − R vs R) (AGEGRP <=65 + CD68 POSITIVE PERIFOLLICULAR 0-50, Total): 346 days
Median PFS (Vc − R vs R) (AGEGRP <=65 + P27 % NUCLEI POSITIVE 0-70, Excluded): 348 days
Median PFS (Vc − R vs R) (AGEGRP <=65 + P27 % NUCLEI POSITIVE 0-70, Selected): 279 days
Median PFS (Vc − R vs R) (AGEGRP <=65 + P27 % NUCLEI POSITIVE 0-70, Total): 345 days
PFS median (Biomarker Negative (all subjects without the pair), N = 238): 12.5 months
PFS median (Biomarker Positive (PSMB P11A heterozygote and CD68 Low), N = 118): 9.1 months
PFS median (CD68 OVERALL POSITIVE 0-25): 10.6 mo
PFS median (CD68 OVERALL POSITIVE 26-50): 9.3 mo
PFS median (CD68 POSITIVE FOLLICULAR 0-25): 9.3 mo
Median PFS (Vc − R vs R) (CD68 POSITIVE FOLLICULAR 0-50 + CD68 POSITIVE PERIFOLLICULAR 0-50, Excluded): 351 days
Median PFS (Vc − R vs R) (CD68 POSITIVE FOLLICULAR 0-50 + CD68 POSITIVE PERIFOLLICULAR 0-50, Selected): 282 days
Median PFS (Vc − R vs R) (CD68 POSITIVE FOLLICULAR 0-50 + CD68 POSITIVE PERIFOLLICULAR 0-50, Total): 346 days
Median PFS (Vc − R vs R) (CD68 POSITIVE FOLLICULAR 0-50 + P65 % POSITIVE CYTOPLASMIC SIGNAL >90%, Excluded): 486 days
Median PFS (Vc − R vs R) (CD68 POSITIVE FOLLICULAR 0-50 + P65 % POSITIVE CYTOPLASMIC SIGNAL >90%, Selected): 279 days
Median PFS (Vc − R vs R) (CD68 POSITIVE FOLLICULAR 0-50 + P65 % POSITIVE CYTOPLASMIC SIGNAL >90%, Total): 346 days
PFS median (CD68 POSITIVE FOLLICULAR 26-50): 9.1 mo
PFS median (CD68 Pos Follic (0-50) & P11A[C/G]**, first line (P 0.0025)): 8.5 mo
PFS median (CD68 Pos Follic (0-50) & P11A[C/G]**, second line (n.s.)): 9.2 mo
PFS (CD68 high): did better on rituximab alone
Median PFS (Vc-R vs R) (Excluded: 20S % NUCLEAR STAINING 30-90 and P65 % POSITIVE CYTOPLASMIC SIGNAL >90%): 419 days
Median PFS (Vc-R vs R) (Excluded: AGEGRP <=65 and CD68 OVERALL POSITIVE 0-50): 351 days
Median PFS (Vc-R vs R) (Excluded: AGEGRP <=65 and P65 % POSITIVE CYTOPLASMIC SIGNAL >90%): 414 days
Median PFS (Vc-R vs R) (Excluded: CD68 OVERALL POSITIVE 0-50 and P65 % POSITIVE C[…] >90%): 375 days
Median PFS (Vc-R vs R) (Excluded: FLIPI High and P65 % POSITIVE CYTOPLASMIC SIGNAL >90%): 378 days
Median PFS (Vc-R vs R) (Excluded: PRITUX NO and P65 % NUCLEAR STAINING 0): 346 days
Median PFS (Vc-R vs R) (Excluded: PSMB1/P11A C/G and ANNARBOR >=III): 375 days
Median PFS (Vc-R vs R) (Excluded: PSMB1/P11A C/G and P65 % NUCLEAR STAINING 0): 346 days
Median PFS (Vc − R vs R) (FLIPI High + P27 % NUCLEI POSITIVE 0-70, Excluded): 351 days
Median PFS (Vc − R vs R) (FLIPI High + P27 % NUCLEI POSITIVE 0-70, Selected): 212 days
Median PFS (Vc − R vs R) (FLIPI High + P27 % NUCLEI POSITIVE 0-70, Total): 345 days
PFS median (HI Tumor BD NO & CD68 OVERALL POSITIVE: 0-50): 16 mo
PFS median (HI Tumor BD NO & CD68 POSITIVE FOLLICULAR: 0-50): 13.8 mo
PFS median (P65 Cytoplasmic signal >90% & 1 prior treatment*, first line (P 0.0132)): 10.6 mo
PFS median (P65 Cytoplasmic signal >90% & 1 prior treatment*, second line (n.s.)): 8.9 mo
PFS median (P65 INTENSITY CYTOPLASMIC SIGNAL <=1+): 9.3 mo
PFS median (PSMB1/P11A C/G): 9.3 mo
PFS median (PSMB1/P11A C/G & 20S % POSITIVE CYTOPLASMIC SIGNAL: >90): 9.5 mo
PFS median (PSMB1/P11A C/G & Age group: <=65): 9.2 mo
PFS median (PSMB1/P11A C/G & CD68 POSITIVE FOLLICULAR: 0-50): 9.1 mo
PFS median (PSMB1/P11A C/G & CD68 POSITIVE PERIFOLLICULAR: >50): 9.2 mo
PFS median (PSMB1/P11A C/G & PSMB5/R24C C/T): 7.8 mo
PFS median (PSMB1/P11A C/G & Time since last Rx: >1 year): 10.7 mo
Median PFS (Vc-R vs R) (PSMB1/P11A C/G + 20S % NUCLEAR STAINING 30-90, Excluded): 346 days
Median PFS (Vc-R vs R) (PSMB1/P11A C/G + 20S % NUCLEAR STAINING 30-90, Selected): 275 days
Median PFS (Vc-R vs R) (PSMB1/P11A C/G + 20S % NUCLEAR STAINING 30-90, Total): 345 days
Median PFS (Vc-R vs R) (PSMB1/P11A C/G + 20S INTENSITY CYTOPLASMIC SIGNAL <=2+, Excluded): 345 days
Median PFS (Vc-R vs R) (PSMB1/P11A C/G + 20S INTENSITY CYTOPLASMIC SIGNAL <=2+, Selected): 278 days
Median PFS (Vc-R vs R) (PSMB1/P11A C/G + 20S INTENSITY CYTOPLASMIC SIGNAL <=2+, Total): 345 days
Median PFS (Vc-R vs R) (PSMB1/P11A C/G + AGEGRP <=65, Excluded): 348 days
Median PFS (Vc-R vs R) (PSMB1/P11A C/G + AGEGRP <=65, Selected): 279 days
Median PFS (Vc-R vs R) (PSMB1/P11A C/G + AGEGRP <=65, Total): 345 days
Median PFS (Vc − R vs R) (PSMB1/P11A C/G + CD68 OVERALL POSITIVE 0-50, Excluded): 348 days
Median PFS (Vc − R vs R) (PSMB1/P11A C/G + CD68 OVERALL POSITIVE 0-50, Selected): 278 days
Median PFS (Vc − R vs R) (PSMB1/P11A C/G + CD68 OVERALL POSITIVE 0-50, Total): 345 days
Median PFS (Vc-R vs R) (PSMB1/P11A C/G + P27 % NUCLEI POSITIVE 0-70, Excluded): 348 days
Median PFS (Vc-R vs R) (PSMB1/P11A C/G + P27 % NUCLEI POSITIVE 0-70, Selected): 277 days
Median PFS (Vc-R vs R) (PSMB1/P11A C/G + P27 % NUCLEI POSITIVE 0-70, Total): 338 days
Median PFS (Vc-R vs R) (PSMB1/P11A C/G + P27 SIGNAL INTENSITY >=2+, Excluded): 346 days
Median PFS (Vc-R vs R) (PSMB1/P11A C/G + P27 SIGNAL INTENSITY >=2+, Selected): 280 days
Median PFS (Vc-R vs R) (PSMB1/P11A C/G + P27 SIGNAL INTENSITY >=2+, Total): 338 days
